Among the data in ChEMBL document CHEMBL3751678, “Stabilizing G-quadruplex DNA by methylazacalix[n]pyridine through shape-complementary interaction” (Bioorg Med Chem Lett, 2016) are ΔTm values, retold here.

Broadly, the ΔTm is the shift of the melting midpoint relative to a reference.

For experiment [1], the species on record is Homo sapiens. Nature of the experiment: Stabilization of human T12 G-quadruplex DNA assessed as change in melting temparature by circular dichroism analysis.
Experiment [2] is described as follows: Stabilization of Bcl2 G-quadruplex DNA (unknown origin) assessed as change in melting temparature by circular dichroism analysis.
The species entered for experiment [3] is Homo sapiens. In words: Stabilization of human H12 G-quadruplex DNA assessed as change in melting temparature by circular dichroism analysis. A general note: CD spectra are sensitive to the conformation of chiral molecules.
Experiment [4] can be described thus: Stabilization of TBA G-quadruplex DNA (unknown origin) assessed as change in melting temparature by circular dichroism analysis.
Experiment [5] is described as follows: Stabilization of c-kit G-quadruplex DNA (unknown origin) assessed as change in melting temparature by circular dichroism analysis.

Regarding `CN1c2cccc(n2)N(C)c2cccc(n2)N(C)c2cccc(n2)N(C)c2cccc(n2)N(C)c2cccc(n2)N(C)c2cccc(n2)N(C)c2cccc(n2)N(C)c2cccc(n2)N(C)c2cccc1n2`, the ΔTm (in the experiment listed under Homo sapiens [1]; in experiment [2]; in the experiment listed under Homo sapiens [3]; in experiment [4]; in experiment [5]) was 0 °C throughout.

Regarding `CN1c2cccc(n2)N(C)c2cccc(n2)N(C)c2cccc(n2)N(C)c2cccc(n2)N(C)c2cccc(n2)N(C)c2cccc(n2)N(C)c2cccc1n2`, the ΔTm (in the experiment filed under Homo sapiens [1]; in experiment [2]; in the experiment filed under Homo sapiens [3]; in experiment [4]; in experiment [5]) was 0 °C in each case.

Take `CN1c2cccc(n2)N(C)c2cccc(n2)N(C)c2cccc(n2)N(C)c2cccc(n2)N(C)c2cccc(n2)N(C)c2cccc(n2)N(C)c2cccc(n2)N(C)c2cccc1n2`: the ΔTm (in the experiment filed under Homo sapiens [1]; in experiment [2]; in the experiment filed under Homo sapiens [3]; in experiment [4]; in experiment [5]) was 0 °C in each case.

Consider `Cn1c2cccc(n2)n(C)c2cccc(n2)n(C)c2cccc(n2)n(C)c2cccc(n2)n(C)c2cccc(n2)n(C)c2cccc1n2`, for which the ΔTm in the experiment filed under Homo sapiens [1] came to 4 °C; in experiment [2], 0 °C; in the experiment filed under Homo sapiens [3], 7 °C; in experiment [4], 0 °C; in experiment [5], 0 °C.

With `CN1c2cccc(n2)N(C)c2cccc(n2)N(C)c2cccc(n2)N(C)c2cccc1n2`, the ΔTm (in the experiment filed under Homo sapiens [1]; in experiment [2]; in the experiment listed under Homo sapiens [3]; in experiment [4]; in experiment [5]) was 0 °C in each case.
